Key:
[1] = test system: various strains of both gram positive and gram negative bacteria; details: cited from earlier work
fungus = details: cited from earlier work
[2] = test system: bacteria (bacterial count); assay: ASTM D-3946-92 testing of metalworking fluid Encool SS with product incorporated; format: cell-based; details: day 5, 1×10^7 without product
Experimental: 1,128 g oleic acid and 400 g BNPD plus 2 g sulfuric were charged in a three neck round bottom flask with agitation, nitrogen, and condenser and heated to 350 F and held for 2.5 hrs until 80 ml of water were recovered. This product was then incorporated into Engineered Lubricants Encool SS at 6% and 10% of the concentrate.
These samples were then submitted for ASTM D-3946-92 testing.

[3] = prior art; cited from earlier work
nematodes in the soil = details: prior art; cited from earlier work

In the case of O=[N+]([O-])C(Br)(CO)CO [BNPD, 2-bromo-2-nitro-propane-1-3-diol], the “average minimum inhibitory concentration” value ([1]; average over gram positive and gram negative strains) is listed as “around 25 ppm”, the “effective concentrations against bacteria” value ([1]; various strains of gram positive and gram negative bacteria) is listed as 1-50 ppm and the antifungal activity (fungus) is listed as “antifungal”.
In the case of CCCCCCC/C=C/CCCCCCCCC(=O)OCC(Br)(COC(=O)CCCCCCCC/C=C/CCCCCCC)[N+](=O)[O-] [Example 7], the bacterial count ([2]; 6% incorporation in Encool SS concentrate) is reported as 1.5×10^4 and the bacterial count ([2]; 10% incorporation in Encool SS concentrate) is reported as 3×10^3.
In the case of O=[N+]([O-])CBr [bromonitromethane], the “effectiveness as a general biocide” value [3] is given as “effective” and the “effectiveness for the treatment of nematodes in the soil” value (nematodes in the soil) is given as “effective”.

From patent US7655819B2, “Polymers with antimicrobial, bioresistant and fungal resistant properties” (TPAT IP LLC, priority 2002, dated 2010)
